Results: PubChem BioAssay (NCI)
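GI50: concentration for 50% inhibition of growth. TGI: total growth inhibition.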

Tests used:
Experiment in all cases: growth of human tumour cells (NCI), 384-well format
786-0 renal = test system: 786-0 renal
A498 renal = test system: A498 renal
A549 NSCLC = test system: A549 NSCLC
ACHN renal = test system: ACHN renal
BT-549 breast = test system: BT-549 breast
CAKI-1 renal = test system: CAKI-1 renal
CCRF-CEM leukemia = test system: CCRF-CEM leukemia
COLO 205 colon = test system: COLO 205 colon
DU-145 prostate = test system: DU-145 prostate
HCC-2998 colon = test system: HCC-2998 colon
HCT-116 colon = test system: HCT-116 colon
HCT-15 colon = test system: HCT-15 colon
HL-60(TB) leukemia = test system: HL-60(TB) leukemia
HOP-62 NSCLC = test system: HOP-62 NSCLC
HOP-92 NSCLC = test system: HOP-92 NSCLC
HT29 colon = test system: HT29 colon
IGROV1 ovarian = test system: IGROV1 ovarian
K-562 leukemia = test system: K-562 leukemia
KM12 colon = test system: KM12 colon
LOX IMVI melanoma = test system: LOX IMVI melanoma
M14 melanoma = test system: M14 melanoma
MALME-3M melanoma = test system: MALME-3M melanoma
MCF7 breast = test system: MCF7 breast
MDA-MB-231 breast = test system: MDA-MB-231 breast
MDA-MB-435 melanoma = test system: MDA-MB-435 melanoma
MDA-MB-468 breast = test system: MDA-MB-468 breast
MOLT-4 leukemia = test system: MOLT-4 leukemia
NCI-H226 lung = test system: NCI-H226 lung
NCI-H23 lung = test system: NCI-H23 lung
NCI-H322M lung = test system: NCI-H322M lung
NCI-H460 NSCLC = test system: NCI-H460 NSCLC
NCI-H522 lung = test system: NCI-H522 lung
NCI/ADR-RES ovarian = test system: NCI/ADR-RES ovarian
OVCAR-3 ovarian = test system: OVCAR-3 ovarian
OVCAR-4 ovarian = test system: OVCAR-4 ovarian
OVCAR-5 ovarian = test system: OVCAR-5 ovarian
OVCAR-8 ovarian = test system: OVCAR-8 ovarian
PC-3 prostate = test system: PC-3 prostate
RPMI-8226 leukemia = test system: RPMI-8226 leukemia
RXF 393 renal = test system: RXF 393 renal
SF-268 CNS = test system: SF-268 CNS
SF-295 CNS = test system: SF-295 CNS
SF-539 CNS = test system: SF-539 CNS
SK-MEL-2 melanoma = test system: SK-MEL-2 melanoma
SK-MEL-28 melanoma = test system: SK-MEL-28 melanoma
SK-MEL-5 melanoma = test system: SK-MEL-5 melanoma
SK-OV-3 ovarian = test system: SK-OV-3 ovarian
SN12C renal = test system: SN12C renal
SNB-19 CNS = test system: SNB-19 CNS
SR leukemia = test system: SR leukemia
SW-620 colon = test system: SW-620 colon
T-47D breast = test system: T-47D breast
TK-10 renal = test system: TK-10 renal
U251 glioblastoma = test system: U251 glioblastoma
UACC-257 melanoma = test system: UACC-257 melanoma
UACC-62 melanoma = test system: UACC-62 melanoma
UO-31 renal = test system: UO-31 renal

c1ccc(Cn2c(-c3ccc(OC[C@H](C4CCNCC4)n4c(-c5ccccc5)nc5ccccc54)cc3)nc3ccccc32)cc1
GI50 ([…]-0 renal): 1730 nM | TGI (786-0 renal): 3.12 µM | GI50 (A498 renal): 1700 nM | TGI (A498 renal): 3.08 µM | GI50 (A549 NSCLC): 1840 nM | TGI (A549 NSCLC): 3.26 µM | GI50 (ACHN renal): 1840 nM | TGI (ACHN renal): 3.25 µM | GI50 (BT-549 breast): 1700 nM | TGI (BT-549 breast): 3.08 µM | GI50 (CAKI-1 renal): 1840 nM | TGI (CAKI-1 renal): 3.24 µM | GI50 (CCRF-CEM leukemia): 1260 nM | TGI (CCRF-CEM leukemia): 2520 nM | GI50 (COLO 205 colon): 1820 nM | TGI (COLO 205 colon): 3.23 µM | GI50 (DU-145 prostate): 1860 nM | TGI (DU-145 prostate): 3.28 µM | GI50 (HCC-2998 colon): 1360 nM | TGI (HCC-2998 colon): 2650 nM | GI50 (HCT-116 colon): 1450 nM | TGI (HCT-116 colon): 2780 nM | GI50 (HCT-15 colon): 1860 nM | TGI (HCT-15 colon): 3.28 µM | GI50 (HL-60(TB) leukemia): 1790 nM | TGI (HL-60(TB) leukemia): 3.18 µM | GI50 (HOP-62 NSCLC): 2020 nM | TGI (HOP-62 NSCLC): 3.46 µM | GI50 (HOP-92 NSCLC): 1630 nM | TGI (HOP-92 NSCLC): 2990 nM | GI50 (HT29 colon): 1660 nM | TGI (HT29 colon): 3.04 µM | GI50 (IGROV1 ovarian): 1650 nM | TGI (IGROV1 ovarian): 3.02 µM | GI50 (K-562 leukemia): 1500 nM | TGI (K-562 leukemia): 2830 nM | GI50 (KM12 colon): 1800 nM | TGI (KM12 colon): 3.21 µM | GI50 (LOX IMVI melanoma): 2330 nM | TGI (LOX IMVI melanoma): 3.8 µM | GI50 (M14 melanoma): 1790 nM | TGI (M14 melanoma): 3.18 µM | GI50 (MALME-3M melanoma): 1790 nM | TGI (MALME-3M melanoma): 3.18 µM | GI50 (MCF7 breast): 1610 nM | TGI (MCF7 breast): 2980 nM | GI50 (MDA-MB-231 breast): 1890 nM | TGI (MDA-MB-231 breast): 3.3 µM | GI50 (MDA-MB-435 melanoma): 2000 nM | TGI (MDA-MB-435 melanoma): 3.43 µM | GI50 (MDA-MB-468 breast): 1970 nM | TGI (MDA-MB-468 breast): 3.39 µM | GI50 (MOLT-4 leukemia): 1160 nM | TGI (MOLT-4 leukemia): 2410 nM | GI50 (NCI-H226 lung): 1770 nM | TGI (NCI-H226 lung): 3.16 µM | GI50 (NCI-H23 lung): 2230 nM | TGI (NCI-H23 lung): 3.68 µM | GI50 (NCI-H322M lung): 1690 nM | TGI (NCI-H322M lung): 3.06 µM | GI50 (NCI-H460 NSCLC): 1700 nM | TGI (NCI-H460 NSCLC): 3.12 µM | GI50 (NCI-H522 lung): 1890 nM | TGI (NCI-H522 lung): 3.29 µM | GI50 (NCI/ADR-RES ovarian): 2400 nM | TGI (NCI/ADR-RES ovarian): 5.2 µM | GI50 (OVCAR-3 ovarian): 1810 nM | TGI (OVCAR-3 ovarian): 3.22 µM | GI50 (OVCAR-4 ovarian): 1510 nM | TGI (OVCAR-4 ovarian): 2850 nM | GI50 (OVCAR-5 ovarian): 2030 nM | TGI (OVCAR-5 ovarian): 3.47 µM | GI50 (OVCAR-8 ovarian): 1810 nM | TGI (OVCAR-8 ovarian): 3.22 µM | GI50 (PC-3 prostate): 1830 nM | TGI (PC-3 prostate): 3.25 µM | GI50 (RPMI-8226 leukemia): 971 nM | TGI (RPMI-8226 leukemia): 2140 nM | GI50 (RXF 393 renal): 1580 nM | TGI (RXF 393 renal): 2920 nM | GI50 (SF-268 CNS): 1800 nM | TGI (SF-268 CNS): 3.2 µM | GI50 (SF-295 CNS): 1860 nM | TGI (SF-295 CNS): 3.27 µM | GI50 (SF-539 CNS): 1660 nM | TGI (SF-539 CNS): 3.03 µM | GI50 (SK-MEL-2 melanoma): 1510 nM | TGI (SK-MEL-2 melanoma): 2840 nM | GI50 (SK-MEL-28 melanoma): 1830 nM | TGI (SK-MEL-28 melanoma): 3.23 µM | GI50 (SK-MEL-5 melanoma): 1820 nM | TGI (SK-MEL-5 melanoma): 3.22 µM | GI50 (SK-OV-3 ovarian): 1680 nM | TGI (SK-OV-3 ovarian): 3.06 µM | GI50 (SN12C renal): 1820 nM | TGI (SN12C renal): 3.22 µM | GI50 (SNB-19 CNS): 1970 nM | TGI (SNB-19 CNS): 3.4 µM | GI50 (SR leukemia): 1170 nM | TGI (SR leukemia): 2410 nM | GI50 (SW-620 colon): 1740 nM | TGI (SW-620 colon): 3.14 µM | GI50 (T-47D breast): 1610 nM | TGI (T-47D breast): 2970 nM | GI50 (TK-10 renal): 1850 nM | TGI (TK-10 renal): 3.25 µM | GI50 (U251 glioblastoma): 1590 nM | TGI (U251 glioblastoma): 2960 nM | GI50 (UACC-257 melanoma): 1270 nM | TGI (UACC-257 melanoma): 2530 nM | GI50 (UACC-62 melanoma): 1890 nM | TGI (UACC-62 melanoma): 3.3 µM | GI50 (UO-31 renal): 1870 nM | TGI (UO-31 renal): 3.27 µM
